From patent US6355799B1, “Substituted benzene compounds, process for their preparation, and herbicidal and defoliant compositions containing them” (ISK Americas Incorporated, priority 1997, dated 2002)

Columns and labels:
Format in all cases: in vivo
[1] = system: redroot pigweed (Amaranthus retroflexus, AMARE); assay: Pre-emerge test, greenhouse herbicide activity screening; conditions: pre-emerge, 14 days after application
Procedure, shortened: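 Rating: 0–100 visual injury, 14 DAA. Application: acetone, 187 l/ha, 15–1000 g ai/ha, flat-fan track sprayer with nozzle 40–45 cm above soil or canopy. Post-emerge runs used 0.25% v/v surfactant on 2–3 leaf plants.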

[2] = system: barnyardgrass (Echinochloa crus-galli, ECHCG); assay: as above; conditions: pre-emerge, 14 days after application
Procedure, shortened: (§1)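 Visual ratings on a 0-100 scale (0 no damage, 100 all plants dead) were taken at 14 days after treatment. Rates of 15-1000 g ai/ha in acetone, 187 l/ha, were sprayed onto soil one day after planting (pre-emerge) or onto 2-3 leaf plants with 0.25% v/v surfactant (post-emerge).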

[3] = system: green foxtail (Setaria viridis, SETVI); assay: as above; conditions: pre-emerge, 14 days after application
Procedure, shortened: as §1

[4] = system: ivyleaf morningglory (Ipomoea hederacea, IPOHE); assay: as above; conditions: pre-emerge, 14 days after application
Procedure, shortened: as §1

[5] = system: johnsongrass (Sorghum halepense, SORHA); assay: as above; conditions: pre-emerge, 14 days after application
Procedure, shortened: as §1

[6] = system: lambsquarters (Chenopodium album, CHEAL); assay: as above; conditions: pre-emerge, 14 days after application
Procedure, shortened: as §1

[7] = system: large crabgrass (Digitaria sanguinalis, DIGSA); assay: as above; conditions: pre-emerge, 14 days after application
Procedure, shortened: as §1

[8] = system: sicklepod (Cassia obtusifolia, CASOB); assay: as above; conditions: pre-emerge, 14 days after application
Procedure, shortened: as §1

[9] = system: velvetleaf (Abutilon theophrasti, ABUTH); assay: as above; conditions: pre-emerge, 14 days after application
Procedure, shortened: as §1

[10] = system: field corn (Zea mays L., var. Dekalb 535, CORN); assay: Pre-emerge test, crop safety; conditions: pre-emerge, 14 days after application; for phytotoxicity rating CORN: rating scale 0-100; for phytotoxicity rating CORN (crop damage): scale 0-100
Procedure, shortened: (§2)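 Applied at 15–1000 g ai/ha from acetone in 187 l/ha spray volume. Post-emergence applications included 0.25% v/v non-ionic surfactant and reached plants sown 8–21 days before. Pre-emergence applications were incorporated by surface watering. Efficacy or crop damage was rated on a 0–100 scale after 14 days.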

[11] = system: upland rice (Oryza sp., var. Tebonnet, RICE); assay: Pre-emerge test, crop safety; conditions: pre-emerge, 14 days after application; for phytotoxicity rating RICE: rating scale 0-100; for phytotoxicity rating RICE (crop damage): scale 0-100
Procedure, shortened: as §2

[12] = system: barnyardgrass (Echinochloa crus-galli, ECHCG); assay: Post-emerge test, greenhouse herbicide activity screening; conditions: post-emerge, 14 days after application, rating scale 0-100
Procedure, shortened: (§3)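 Each test used a mechanized track sprayer delivering 187 l/ha of acetone solution at 15–1000 g ai/ha. Post-emerge foliage at 2–3 leaves was treated with added 0.25% v/v non-ionic surfactant and bottom-watered only. Injury was assessed on day 14, where 100 means total kill.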

[13] = system: green foxtail (Setaria viridis, SETVI); assay: as above; conditions: post-emerge, 14 days after application, rating scale 0-100
Procedure, shortened: as §3

[14] = system: ivyleaf morningglory (Ipomoea hederacea, IPOHE); assay: as above; conditions: post-emerge, 14 days after application, rating scale 0-100
Procedure, shortened: as §3

[15] = system: johnsongrass (Sorghum halepense, SORHA); assay: as above; conditions: post-emerge, 14 days after application, rating scale 0-100
Procedure, shortened: as §3

[16] = system: lambsquarters (Chenopodium album, CHEAL); assay: as above; conditions: post-emerge, 14 days after application, rating scale 0-100
Procedure, shortened: as §3

[17] = system: large crabgrass (Digitaria sanguinalis, DIGSA); assay: as above; conditions: post-emerge, 14 days after application, rating scale 0-100
Procedure, shortened: as §3

[18] = system: redroot pigweed (Amaranthus retroflexus, AMARE); assay: as above; conditions: post-emerge, 14 days after application
Procedure, shortened: as §3

[19] = system: sicklepod (Cassia obtusifolia, CASOB); assay: as above; conditions: post-emerge, 14 days after application, rating scale 0-100
Procedure, shortened: as §3

[20] = system: velvetleaf (Abutilon theophrasti, ABUTH); assay: as above; conditions: post-emerge, 14 days after application, rating scale 0-100
Procedure, shortened: as §3

[21] = system: field corn (Zea mays L., var. Dekalb 535, CORN); assay: Post-emerge test, crop safety; conditions: post-emerge, 14 days after application, rating scale 0-100
Procedure, shortened: as §1

[22] = system: upland rice (Oryza sp., var. Tebonnet, RICE); assay: Post-emerge test, crop safety; conditions: post-emerge, 14 days after application, rating scale 0-100
Procedure, shortened: as §1

[23] = 250 g ai/ha, rating scale 0-100

COc1c(Cl)cc(F)c(-n2c(=O)cc(C(F)(F)F)n(C)c2=O)c1Sc1ccc2ccccc2c1 [17-4]
phytotoxicity rating AMARE ([1]; 63 g ai/ha, rating scale 0-100): 30
phytotoxicity rating AMARE [1, 23]: 100
phytotoxicity rating ECHCG ([2]; 63 g ai/ha, rating scale 0-100): 0
phytotoxicity rating ECHCG [2, 23]: 0
phytotoxicity rating SETVI ([3]; 63 g ai/ha, rating scale 0-100): 0
phytotoxicity rating SETVI [3, 23]: 20
phytotoxicity rating IPOHE ([4]; 63 g ai/ha, rating scale 0-100): 0
phytotoxicity rating IPOHE [4, 23]: 10
phytotoxicity rating SORHA ([5]; 63 g ai/ha, rating scale 0-100): 0
phytotoxicity rating SORHA [5, 23]: 0
phytotoxicity rating CHEAL ([6]; 63 g ai/ha, rating scale 0-100): 20
phytotoxicity rating CHEAL [6, 23]: 70
phytotoxicity rating DIGSA ([7]; 63 g ai/ha, rating scale 0-100): 0
phytotoxicity rating DIGSA [7, 23]: 10
phytotoxicity rating CASOB ([8]; 63 g ai/ha, rating scale 0-100): 0
phytotoxicity rating CASOB [8, 23]: 10
phytotoxicity rating ABUTH ([9]; 63 g ai/ha, rating scale 0-100): 0
phytotoxicity rating ABUTH [9, 23]: 60
phytotoxicity rating CORN ([10]; 63 g ai/ha): 0
phytotoxicity rating CORN ([10]; 250 g ai/ha): 0
phytotoxicity rating RICE ([11]; 63 g ai/ha): 0
phytotoxicity rating RICE ([11]; 250 g ai/ha): 10
Post-emerge Herbicidal Activity ECHCG (phytotoxicity rating) ([12]; 63 g ai/ha): 0
Post-emerge Herbicidal Activity ECHCG (phytotoxicity rating) ([12]; 250 g ai/ha): 0
Post-emerge Herbicidal Activity SETVI (phytotoxicity rating) ([13]; 63 g ai/ha): 0
Post-emerge Herbicidal Activity SETVI (phytotoxicity rating) ([13]; 250 g ai/ha): 0
Post-emerge Herbicidal Activity IPOHE (phytotoxicity rating) ([14]; 63 g ai/ha): 20
Post-emerge Herbicidal Activity IPOHE (phytotoxicity rating) ([14]; 250 g ai/ha): 80
Post-emerge Herbicidal Activity SORHA (phytotoxicity rating) ([15]; 63 g ai/ha): 0
Post-emerge Herbicidal Activity SORHA (phytotoxicity rating) ([15]; 250 g ai/ha): 0
Post-emerge Herbicidal Activity CHEAL (phytotoxicity rating) ([16]; 63 g ai/ha): 20
Post-emerge Herbicidal Activity CHEAL (phytotoxicity rating) ([16]; 250 g ai/ha): 40
Post-emerge Herbicidal Activity DIGSA (phytotoxicity rating) ([17]; 63 g ai/ha): 0
Post-emerge Herbicidal Activity DIGSA (phytotoxicity rating) ([17]; 250 g ai/ha): 0
Post-emerge Herbicidal Activity AMARE (phytotoxicity rating) ([18]; 63 g ai/ha, rating scale 0-100 (0 no damage, 100 complete death)): 20
Post-emerge Herbicidal Activity AMARE (phytotoxicity rating) [18, 23]: 70
Post-emerge Herbicidal Activity CASOB (phytotoxicity rating) ([19]; 63 g ai/ha): 10
Post-emerge Herbicidal Activity CASOB (phytotoxicity rating) ([19]; 250 g ai/ha): 20
Post-emerge Herbicidal Activity ABUTH (phytotoxicity rating) ([20]; 63 g ai/ha): 35
Post-emerge Herbicidal Activity ABUTH (phytotoxicity rating) ([20]; 250 g ai/ha): 70
Post-emerge Herbicidal Activity CORN (crop damage rating) ([21]; 63 g ai/ha): 0
Post-emerge Herbicidal Activity CORN (crop damage rating) ([21]; 250 g ai/ha): 0
Post-emerge Herbicidal Activity RICE (crop damage rating) ([22]; 63 g ai/ha): 0
Post-emerge Herbicidal Activity RICE (crop damage rating) ([22]; 250 g ai/ha): 0

COc1c(Cl)cc(F)c(-n2c(=O)cc(C(F)(F)F)n(C)c2=O)c1NC(=O)C=Cc1ccccc1F [2-125]
phytotoxicity rating AMARE ([1]; 63 g ai/ha, scale 0-100): 100
phytotoxicity rating AMARE ([1]; 250 g ai/ha, scale 0-100): 100
phytotoxicity rating ECHCG ([2]; 63 g ai/ha, scale 0-100): 10
phytotoxicity rating ECHCG ([2]; 250 g ai/ha, scale 0-100): 50
phytotoxicity rating SETVI ([3]; 63 g ai/ha, scale 0-100): 50
phytotoxicity rating SETVI ([3]; 250 g ai/ha, scale 0-100): 90
phytotoxicity rating IPOHE ([4]; 63 g ai/ha, scale 0-100): 0
phytotoxicity rating IPOHE ([4]; 250 g ai/ha, scale 0-100): 100
phytotoxicity rating SORHA ([5]; 63 g ai/ha, scale 0-100): 20
phytotoxicity rating SORHA ([5]; 250 g ai/ha, scale 0-100): 50
phytotoxicity rating CHEAL ([6]; 63 g ai/ha, scale 0-100): 100
phytotoxicity rating CHEAL ([6]; 250 g ai/ha, scale 0-100): 100
phytotoxicity rating DIGSA ([7]; 63 g ai/ha, scale 0-100): 30
phytotoxicity rating DIGSA ([7]; 250 g ai/ha, scale 0-100): 90
phytotoxicity rating CASOB ([8]; 63 g ai/ha, scale 0-100): 30
phytotoxicity rating CASOB ([8]; 250 g ai/ha, scale 0-100): 70
phytotoxicity rating ABUTH ([9]; 63 g ai/ha, scale 0-100): 100
phytotoxicity rating ABUTH ([9]; 250 g ai/ha, scale 0-100): 100
phytotoxicity rating CORN (crop damage) ([10]; 63 g ai/ha): 0
phytotoxicity rating CORN (crop damage) ([10]; 250 g ai/ha): 10
phytotoxicity rating RICE (crop damage) ([11]; 63 g ai/ha): 0
phytotoxicity rating RICE (crop damage) ([11]; 250 g ai/ha): 45
ECHCG phytotoxicity rating ([12]; 63 g ai/ha): 20
ECHCG phytotoxicity rating ([12]; 250 g ai/ha): 40
SETVI phytotoxicity rating ([13]; 63 g ai/ha): 40
SETVI phytotoxicity rating ([13]; 250 g ai/ha): 60
IPOHE phytotoxicity rating ([14]; 63 g ai/ha): 100
IPOHE phytotoxicity rating ([14]; 250 g ai/ha): 100
SORHA phytotoxicity rating ([15]; 63 g ai/ha): 30
SORHA phytotoxicity rating ([15]; 250 g ai/ha): 40
CHEAL phytotoxicity rating ([16]; 63 g ai/ha): 100
CHEAL phytotoxicity rating ([16]; 250 g ai/ha): 100
DIGSA phytotoxicity rating ([17]; 63 g ai/ha): 20
DIGSA phytotoxicity rating ([17]; 250 g ai/ha): 40
AMARE phytotoxicity rating ([18]; 63 g ai/ha, rating scale 0-100): 100
AMARE phytotoxicity rating [18, 23]: 100
CASOB phytotoxicity rating ([19]; 63 g ai/ha): 90
CASOB phytotoxicity rating ([19]; 250 g ai/ha): 100
ABUTH phytotoxicity rating ([20]; 63 g ai/ha): 100
ABUTH phytotoxicity rating ([20]; 250 g ai/ha): 100
CORN phytotoxicity rating (crop damage) ([21]; 63 g ai/ha): 10
CORN phytotoxicity rating (crop damage) ([21]; 250 g ai/ha): 20
RICE phytotoxicity rating (crop damage) ([22]; 63 g ai/ha): 40
RICE phytotoxicity rating (crop damage) ([22]; 250 g ai/ha): 70
